Results as given in patent US20170233414A1, “DERIVATIVES OF BODIPY” (OREGON HEALTH & SCIENCE UNIVERSITY, priority 2016, published 2017).
Read-outs that look alike come from different tables or passages of the source.

Assay: Fluorescence properties and quantum yield measurements of the BAA library
Assay type: physicochemical
Parameters: FWHM (full-width-at half max): unit not given here
Description: General Instruments. Synthesized sample purification was performed with an Agilent 1260 Infinity HPLC utilizing a C18 column (150mm×21.2 mm). MS (HRMS, ESI) spectra data was collected with an Agilent 6244 TOF LC/MS with diode array detector VL+ and C18 column (4.6 mm×50 mm). Absorbance and fluorescence data were measured on a SpectraMax M5 Microplate reader. NMR spectra, ^1H and ^13C, were recorded on a Bruker ARK400 spectrometer. BAA microscopy screening in cells for organelle specificity and signal-to-background ratio was completed with an Axio Zeiss Light Microscope and 63× oil immersion objective.
Fluorescence Properties and Quantum Yield Measurements. Spectroscopic characterizations were performed in anhydrous DMSO in polystyrene 96 well plate. Analysis included the maximum absorbance wavelength, maximum fluorescence emission wavelength, full-width-at half max, and quantum yield. Quantum yields (φfl) were determined by comparing the area under the emission spectrum of the BAA compound to a reference fluorophore solution at three concentrations using equation 1, where Grad represents the gradient from the plots of integrated fluorescence intensity vs absorbance at three concentrations and q is the refractive index of the solvent. Fluorescein in 0.1 M NaOH (φfl=0.91)^3 was the reference for samples with a max absorbance up to 510 nm, where an excitation of 470 nm was used with the emission integrated between 490 to 800 nm. Rhodamine B in ethanol (φfl=0.70) was the reference for samples with a max absorbance between 511-595 nm, where an excitation of 525 nm was used with the emission integrated between 545 to 800 nm. Cresyl violet in methanol (φfl=0.54)^4 was the reference for samples with a max absorbance above 595 nm, where an excitation of 570 nm was used with the emission integrated between 590 to 800 nm.

[1] = anhydrous DMSO, polystyrene 96 well plate
[2] = anhydrous DMSO, relative to reference fluorophore at three concentrations

SMILES | Stokes Shift (anhydrous DMSO) | λmax ABS [1] | λmax EM [1] | FWHM (full-width-at half max) (anhydrous DMSO, emission) | φfl (quantum yield) [2] | FWHM (full-width-at half max) | Stokes Shift | λmax ABS | λmax EM | φfl (quantum yield)
COc1ccc2c(/C=C(/CC(=O)O)c3ccc4n3[B-](F)(F)[N+]3=C(/C=C/c5c(Cl)ncc6cc(OC)ccc56)C=C(C)C3=C4)c(Cl)ncc2c1 [BAA-1b] | 17 nm | 580 nm | 597 nm | 40 | 0.62 | – | – | – | – | –
COc1cc(/C=C/C2=[N+]3C(=Cc4ccc(CCC(=O)O)n4[B-]3(F)F)C(C)=C2)cc(I)c1OC [BAA-3a] | 10 nm | 569 nm | 579 nm | 31 | 0.61 | – | – | – | – | –
COc1cc(/C=C(/CC(=O)O)c2ccc3n2[B-](F)(F)[N+]2=C(/C=C/c4cc(I)c(OC)c(OC)c4)C=C(C)C2=C3)cc(I)c1OC [BAA-3b] | 13 nm | 574 nm | 587 nm | 34 | 0.70 | – | – | – | – | –
CC1=CC(/C=C/c2ccccc2N2CCN(C)CC2)=[N+]2C1=Cc1ccc(CCC(=O)O)n1[B-]2(F)F [BAA-4a] | 19 nm | 581 nm | 600 nm | 56 | 0.43 | – | – | – | – | –
COc1cc(OC)c(/C=C/C2=[N+]3C(=Cc4ccc(CCC(=O)O)n4[B-]3(F)F)C(C)=C2)c(OC)c1 [BAA-5a] | 23 nm | 592 nm | 615 nm | 47 | 0.83 | – | – | – | – | –
COc1ccc2c(c1)C(/C=C/C1=[N+]3C(=Cc4ccc(CCC(=O)O)n4[B-]3(F)F)C(C)=C1)C=N2 (stereo not shown) [BAA-6a] | 34 nm | 609 nm | 643 nm | 64 | 0.18 | – | – | – | – | –
COc1ccc(/C=C/C2=[N+]3C(=Cc4ccc(CCC(=O)O)n4[B-]3(F)F)C(C)=C2)c(OC)c1C [BAA-7a] | 18 nm | 582 nm | 600 nm | 63 | 0.29 | – | – | – | – | –
COc1ccc(/C=C(/CC(=O)O)c2ccc3n2[B-](F)(F)[N+]2=C(/C=C/c4ccc(OC)c(C)c4OC)C=C(C)C2=C3)c(OC)c1C [BAA-7b] | 19 nm | 581 nm | 600 nm | 56 | 0.43 | – | – | – | – | –
COc1ccc(/C=C/C2=[N+]3C(=Cc4ccc(CCC(=O)O)n4[B-]3(F)F)C(C)=C2)c2ccccc12 [BAA-8a] | 29 nm | 594 nm | 623 nm | 61 | 0.50 | – | – | – | – | –
COc1ccc(B(O)O)c(/C=C/C2=[N+]3C(=Cc4ccc(CCC(=O)O)n4[B-]3(F)F)C(C)=C2)c1 [BAA-9a] | 10 nm | 569 nm | 579 nm | 32 | 0.35 | – | – | – | – | –
CCN(CC)c1ccc(/C=C(/CC(=O)O)c2ccc3n2[B-](F)(F)[N+]2=C(/C=C/c4ccc(N(CC)CC)cc4)C=C(C)C2=C3)cc1 [BAA-10b] | 82 nm | 632 nm | 714 nm | 102 | 0.01 | – | – | – | – | –
CCCSc1ncc(/C=C/C2=[N+]3C(=Cc4ccc(CCC(=O)O)n4[B-]3(F)F)C(C)=C2)cn1 [BAA-12a] | 27 nm | 589 nm | 616 nm | 88 | 0.10 | – | – | – | – | –
COc1ccc(/C=C/C2=[N+]3C(=Cc4ccc(CCC(=O)O)n4[B-]3(F)F)C(C)=C2)cc1F [BAA-13a] | 10 nm | 576 nm | 586 nm | 44 | 0.19 | – | – | – | – | –
CC1=CC(/C=C/c2ccc(CC(C)C)s2)=[N+]2C1=Cc1ccc(CCC(=O)O)n1[B-]2(F)F [BAA-14a] | 13 nm | 594 nm | 607 nm | 70 | 0.44 | – | – | – | – | –
C=CCc1cc(/C=C/C2=[N+]3C(=Cc4ccc(CCC(=O)O)n4[B-]3(F)F)C(C)=C2)ccc1OC [BAA-15a] | 16 nm | 581 nm | 597 nm | 39 | 0.42 | – | – | – | – | –
CC1=CC(/C=C/c2cc(C)c(C)cc2C)=[N+]2C1=Cc1ccc(CCC(=O)O)n1[B-]2(F)F [BAA-16a] | 58 nm | 552 nm | 610 nm | 78 | 0.22 | – | – | – | – | –
CC1=CC(/C=C/c2ccc(-c3ccccc3)cc2)=[N+]2C1=Cc1ccc(CCC(=O)O)n1[B-]2(F)F [BAA-17a] | – | – | – | – | – | 42 | 12 nm | 579 nm | 591 nm | 0.59
CC1=CC(/C=C/c2ccc(OCc3ccccc3)cc2)=[N+]2C1=Cc1ccc(CCC(=O)O)n1[B-]2(F)F [BAA-18a] | 16 nm | 577 nm | 593 nm | 37 | 0.65 | – | – | – | – | –
CC1=CC(/C=C/c2ccc(-c3cccs3)cc2)=[N+]2C1=Cc1ccc(CCC(=O)O)n1[B-]2(F)F [BAA-19a] | 13 nm | 582 nm | 595 nm | 35 | 0.64 | – | – | – | – | –
CCSc1ncc(/C=C/C2=[N+]3C(=Cc4ccc(CCC(=O)O)n4[B-]3(F)F)C(C)=C2)cn1 [BAA-20a] | 8 nm | 577 nm | 585 nm | 31 | 0.15 | – | – | – | – | –
